Laboratory results published in paper PMC11494886, “Discovery and design of molecular glue enhancers of CDK12–DDB1 interactions for targeted degradation of cyclin K” (RSC Chemical Biology, 2024).

Target: T1, DDB1 (Homo sapiens, UniProt Q16531, DEL396-705)
T1 construct: made in house; host or cells: Spodoptera frugiperda SF9 insect cells (Bac-to-Bac)
Test: Microscale thermophoresis, DDB1 without CDK12/cyclin K
Type: binding
Details: MST, absence of CDK12/cyclin K
Procedure: Finally, the capacity of small molecules to induce a ternary complex between CDK12/cyclin K and DDB1 in vitro was assessed by microscale thermophoresis (MST). […]
The gene of human DDB1 (Uniprot: Q16531) with a beta-propeller B domain deletion (ΔBPB: a.a. 396–705 deleted) was subcloned into pFastBac1 vector with an N-terminal His8-tag and a HRV 3C cleavage site (GeneScript), and the recombinant protein was expressed in Spodoptera frugiperda SF9 insect cells in sf900™ II SFM culture medium using the Bac to Bac™ baculovirus expression system (Gibco™). […]
A protocol to assess ternary binding of molecular glues with CDK12/cycK and DDB1 by MST was established using published procedures for PROTAC interaction with bromodomains and E3 ubiquitin ligases.[38] […] After 5 min incubation at room temperature, the samples were loaded in MO-K022 standard treated capillaries (NanoTemper Technologies) and measured by a Monolith NT.115 Pico instrument (NanoTemper Technologies) at 40% MST power and 20% excitation power (auto-detect) on Pico-Red detector at 22 °C. MST traces were recorded using standard parameters: 5 s MST power off, 30 s MST power on and 5 s MST power off. […]

T1 sequence (Q16531 with tags, fused parts or gaps DEL396-705): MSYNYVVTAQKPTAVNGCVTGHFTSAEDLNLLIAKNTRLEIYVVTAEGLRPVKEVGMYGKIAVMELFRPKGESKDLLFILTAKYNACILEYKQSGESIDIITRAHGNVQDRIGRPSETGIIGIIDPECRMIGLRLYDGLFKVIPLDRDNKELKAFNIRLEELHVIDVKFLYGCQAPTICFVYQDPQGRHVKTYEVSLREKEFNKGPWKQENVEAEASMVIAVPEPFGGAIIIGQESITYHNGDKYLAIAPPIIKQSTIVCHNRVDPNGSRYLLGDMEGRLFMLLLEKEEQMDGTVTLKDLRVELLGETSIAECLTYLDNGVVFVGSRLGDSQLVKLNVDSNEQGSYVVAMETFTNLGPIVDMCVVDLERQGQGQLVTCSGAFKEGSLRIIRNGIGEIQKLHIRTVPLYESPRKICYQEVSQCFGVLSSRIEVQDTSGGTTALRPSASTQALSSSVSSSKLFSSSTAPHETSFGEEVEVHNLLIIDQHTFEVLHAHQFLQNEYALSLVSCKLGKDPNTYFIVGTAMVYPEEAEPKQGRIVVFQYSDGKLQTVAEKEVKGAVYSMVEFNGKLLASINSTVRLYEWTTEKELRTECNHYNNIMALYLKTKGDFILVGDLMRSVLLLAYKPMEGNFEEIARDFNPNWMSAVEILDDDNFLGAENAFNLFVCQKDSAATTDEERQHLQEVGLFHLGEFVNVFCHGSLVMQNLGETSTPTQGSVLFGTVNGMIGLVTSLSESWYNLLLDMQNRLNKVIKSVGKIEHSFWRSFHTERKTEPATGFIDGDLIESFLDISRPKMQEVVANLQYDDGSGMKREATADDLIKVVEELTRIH

## Cn1cc(-n2cnc3c(NCc4nc5cc(Cl)c(Cl)cc5[nH]4)nc(N4CCOCC4)nc32)cn1 [SR-4835]
  binding to DDB1: did not show binding potential for DDB1
